Test results from ChEMBL document CHEMBL1201862, “PubChem BioAssay data set” (2004).
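Five concentrations, 48 hours, 96-well plates. The concentration for 50% growth inhibition is given as GI50.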 Active and inactive are the calls of the source. No stated cut-off is given here; in the data, active = GI50 up to about 1.1 µM and inactive = higher.

How the values were obtained:
Experiment in all cases: growth of human tumour cells (NCI), 48 h
[1] = tested on: HCT-116
[2] = tested on: HCC 2998
[3] = tested on: OVCAR-4
[4] = tested on: HT-29
[5] = tested on: PC-3
[6] = tested on: A498
[7] = tested on: SF-268
[8] = tested on: A549
[9] = tested on: OVCAR-5
[10] = tested on: LOX IMVI
[11] = tested on: SF-295
[12] = tested on: SR
[13] = tested on: HOP-62
[14] = tested on: HCT-15
[15] = tested on: ACHN
[16] = tested on: MCF7
[17] = tested on: RXF 393
[18] = tested on: COLO 205
[19] = tested on: SNB-19
[20] = tested on: NCI-H23

Measured: GI50

CCCCCCCCC/C=C1/CC(CO)(COC(=O)CC(C(C)C)C(C)C)OC1=O (stereo not given)
inactive: [1] 13.2 µM | [2] 2.39 µM | [3] 14.7 µM | [4] 16.3 µM | [5] 6.75 µM | [6] 3.14 µM | [7] 11.3 µM | [8] 1.58 µM | [9] 12.1 µM | [10] 11.5 µM | [12] 17.8 µM | [13] 1.12 µM | [15] 3.17 µM | [16] 9.23 µM | [17] 13.9 µM | [19] 10.5 µM | [20] 13.1 µM
active: [11] 0.675 µM | [18] 0.193 µM
14.4 µM: [14]

O=C(O)c1ccccc1-c1ccccc1C(=O)Nc1ccc2c(c1)Cc1ccccc1-2
20.4 µM: [14]
inactive: [1] 18 µM | [2] 17.8 µM | [3] 60.1 µM | [4] 25.5 µM | [5] 41.1 µM | [6] 19.4 µM | [7] 43.1 µM | [8] 29.2 µM | [9] 21.9 µM | [10] 22.5 µM | [11] 39.1 µM | [12] 28.4 µM | [13] 58.6 µM | [15] 30.3 µM | [16] 28.1 µM | [17] 46.7 µM | [18] 17.2 µM | [19] 36.1 µM | [20] 18 µM

COc1ccc(/N=N\c2c(N)nn3c(SC)c(C#N)c(N)nc23)cc1
8.61 µM: [14]
inactive: [1] 7.74 µM | [2] 3.96 µM | [3] 15.1 µM | [4] 9.75 µM | [5] 6.87 µM | [6] 11.1 µM | [7] 3.21 µM | [8] 18 µM | [9] 17.6 µM | [10] 1.74 µM | [11] 19.9 µM | [12] 2.44 µM | [13] 22.3 µM | [15] 14.6 µM | [16] 2.4 µM | [17] 6.47 µM | [18] 12.9 µM | [19] 16.9 µM | [20] 5.55 µM

COc1ncnc2c(NC3OC(CO)C(O)C3O)ncnc12 (stereo not given)
inactive: [2] 1.26 µM | [19] 1.16 µM
0.179 µM: [14]
active: [1] 0.0541 µM | [3] 0.713 µM | [4] 0.0685 µM | [5] 0.493 µM | [6] 0.411 µM | [7] 0.506 µM | [8] 0.131 µM | [9] 0.569 µM | [10] 0.0445 µM | [11] 0.579 µM | [12] 0.0266 µM | [13] 0.408 µM | [15] 0.201 µM | [16] 0.041 µM | [17] 0.794 µM | [18] 0.307 µM | [20] 0.24 µM

CCCCCCCCCCCC[C@H](O)[C@H]1CC[C@H]([C@H](O)CCCC[C@H](O)CCCCC[C@@H](O)CC2=C[C@H](C)OC2=O)O1
inactive: [1] 1.76 µM | [2] 17.4 µM | [3] 17.6 µM | [4] 2.82 µM | [5] 3.1 µM | [6] 4.58 µM | [7] 3.33 µM | [8] 2.34 µM | [9] 17.7 µM | [11] 1.63 µM | [12] 2.82 µM | [13] 6.3 µM | [16] 1.4 µM | [17] 16.6 µM | [18] 4.21 µM | [19] 1.13 µM
active: [10] 1.11 µM | [15] 1.08 µM | [20] 0.00415 µM
5.56 µM: [14]
